{"source": "paper PMC11111408", "about": "“Concurrent inhibition of oncogenic and wild-type RAS-GTP for cancer therapy” (Nature, 2024)", "key": {"NRAS WT": {"target": "NRAS WT (Homo sapiens, UniProt P01111+P62937)", "experiment": "RAS binding affinity of compound-bound CYPA (Kd2), SPR", "settings": "steady state SPR, (95% CI)"}, "A375 cells": {"tested_on": "A375 cells", "experiment": "Cellular ERK phosphorylation (pERK)", "format": "cell-based, human"}, "WT KRAS": {"target": "T1, WT KRAS (Homo sapiens, UniProt P01116+P62937)", "T1 construct": "His6-TEV (N); made in house; host or cells: E. coli BL21(DE3)", "experiment": "KRAS–RALGDS RID binding inhibition in vitro", "format": "biochemical", "design": "TR-FRET of recombinant KRAS and RALGDS RID: scale not given here", "settings": "for TR-FRET of recombinant KRAS and RALGDS RID: single replicates"}, "[1]": {"tested_on": "antigen specific CD8+ T cells, C57BL/6J mice", "experiment": "OVA peptide vaccination, CD8+ T cell response", "format": "in vivo, mouse", "settings": "individual mice; for IFNγ production by ELISpot: 25 mg/kg PO daily, 25 mg/kg", "procedure": "Mice were euthanized on day 15 after treatment start, and spleens were harvested and assessed for frequency of antigen specific (H-2Kb [sequence] tetramer positive) CD8 + T cells by flow cytometry (a) and for IFNγ production by ELISpot.\nBriefly, bone marrow was isolated from the femurs and tibias of 6-8 week-old female C57BL/6J mice (Jackson Laboratory). Bone marrow cells were plated in complete RPMI containing 10% FBS, 1 mM Sodium Pyruvate, mM HEPES, 1x MEM Non-Essential Amino Acids, and supplemented with GMCSF (Peprotech) at 20 ng/ml. On day 10, 0.5 ng/ml IL-4 (Peptotech) was added to the media. 50% of the media was replaced with fresh GMCSF-containing media on culture days 6, 8, and 10. […] 100% of the media was replaced on culture days 12 and 13. To activate BMDCs prior to vaccination, 0.5 μg/ml CpG (Invivogen, tlrl-1668) and 1 μg/ml LPS (Sigma Aldrich, L5418) were added to the media on day 13. On culture day 14, activated BMDCs were pulsed with OVA peptide ([sequence]) (1 μg/ml, Anaspec, AS-60193-1) for 2 hours and washed 3 times in serum-free RPMI. 1x10^6 peptide-pulsed, activated BMDCS were injected intravenously into each mouse on day 0 and day 8. […] After 15 days of treatment, mice were euthanized and spleens were harvested. Spleens were mechanically dissociated into single-cell suspension, incubated at 4°C for 20 minutes with Mouse Fc blocking agent (anti-CD16/32, Biolegend) and Live/Dead blue Viability Dye (ThermoFisher), and 20 minutes with cell staining antibody mix. […] Murine IFN𝛄 ELISpot (ImmunoSpot, CTL) was performed according to manufacturer’s protocol. Briefly, spleens were mechanically dissociated into single-cell suspension. […] Plates were incubated at 37°C, 5% CO2 for 24 hours before staining and analysis on the CTL ImmunoSpot S6 Universal M2 Analyzer."}, "[2]": {"tested_on": "adagrasib-resistant NCI-H358 cells with secondary NRAS^Q61K mutation", "experiment": "Proliferation (CTG) and western blots of parental and adagrasib-resistant NCI-H358 (NRAS^Q61K)", "format": "cell-based, human", "settings": "NCI-H358 clone with concurrent NRAS^Q61K mutation"}, "KRAS WT [3]": {"target": "T2, KRAS WT (Homo sapiens, UniProt P01116+P62937)", "experiment": "Cellular RAS–CYPA binding (tri-complex formation), nano-BRET in U2OS cells", "format": "cell-based", "design": "expressed in transfected cells; host or cells: U2OS", "settings": "(95% CI)", "excerpt": "(§1) KRAS4B, or other small GTPases, containing the indicated mutations were cloned in pNLF-N or pHTN plasmids for expression with an N-terminal nanoluciferase or HaloTag fusion, respectively. […] The following day, the cells were collected by Trypsin and reseeded in a white tissue culture-treated 96-well plate in OptiMem phenol red-free medium (Gibco) containing 4% FBS and a 1:1,000 dilution of NanoBRET 618 HaloTag ligand (Promega). For endpoint concentration response curves, vivazine nanoluciferase substrate was added to 1× concentration in OptiMem phenol red-free medium with 4% FBS. Varying concentrations of inhibitor were added and incubated for 1 or 4 h before the nano-BRET signal was measured on a Perkin Elmer Envision plate reader. For kinetic assays, endurazine nanoluciferase substrate was used in place of vivazine, and the plate was placed in a Cytation5 multi-mode reader pre-equilibrated to 37 °C and 5% CO2."}, "KRAS^G12C [4]": {"target": "T3, KRAS^G12C (Homo sapiens, UniProt P01116+P62937, G12C)", "experiment": "Cellular RAS–CYPA binding (tri-complex formation), nano-BRET in U2OS cells", "format": "cell-based", "design": "expressed in transfected cells; host or cells: U2OS", "settings": "(95% CI)", "excerpt": "as §1"}, "KRAS^G12D": {"target": "KRAS^G12D (Homo sapiens, UniProt P01116+P62937, G12D)", "experiment": "Cellular RAS–CYPA binding (tri-complex formation), nano-BRET in U2OS cells", "format": "cell-based", "design": "expressed in transfected cells; host or cells: U2OS", "settings": "(95% CI)", "excerpt": "as §1"}, "KRAS^G12R [5]": {"target": "T4, KRAS^G12R (Homo sapiens, UniProt P01116+P62937, G12R)", "experiment": "Cellular RAS–CYPA binding (tri-complex formation), nano-BRET in U2OS cells", "format": "cell-based", "design": "expressed in transfected cells; host or cells: U2OS", "settings": "(95% CI)", "excerpt": "as §1"}, "KRAS^G13C": {"target": "KRAS^G13C (Homo sapiens, UniProt P01116+P62937, G13C)", "experiment": "Cellular RAS–CYPA binding (tri-complex formation), nano-BRET in U2OS cells", "format": "cell-based", "design": "expressed in transfected cells; host or cells: U2OS", "settings": "(95% CI)", "excerpt": "as §1"}, "KRAS WT [6]": {"target": "T2, KRAS WT", "experiment": "RAS binding affinity of compound-bound CYPA (Kd2), SPR", "design": "made in house; host or cells: BL21(DE3) Escherichia coli", "settings": "steady state SPR, (95% CI)"}, "KRAS^G12R [7]": {"target": "T4, KRAS^G12R", "experiment": "RAS binding affinity of compound-bound CYPA (Kd2), SPR", "design": "made in house; host or cells: BL21(DE3) Escherichia coli", "settings": "steady state SPR, (95% CI)"}, "KRAS^G12A": {"target": "KRAS^G12A (Homo sapiens, UniProt P01116+P62937, G12A)", "experiment": "Cellular RAS–CYPA binding (tri-complex formation), nano-BRET in U2OS cells", "format": "cell-based", "design": "expressed in transfected cells; host or cells: U2OS or U2OS PPIA-KO", "settings": "(95% CI)", "excerpt": "as §1"}, "KRAS^Q61H": {"target": "KRAS^Q61H (Homo sapiens, UniProt P01116+P62937, Q61H)", "experiment": "Cellular RAS–CYPA binding (tri-complex formation), nano-BRET in U2OS cells", "format": "cell-based", "design": "expressed in transfected cells; host or cells: U2OS or U2OS PPIA-KO", "settings": "(95% CI)", "excerpt": "as §1"}, "KRAS^G12C [8]": {"target": "T3, KRAS^G12C", "experiment": "RAS binding affinity of compound-bound CYPA (Kd2), SPR", "design": "His6-TEV (N); made in house; host or cells: BL21(DE3) Escherichia coli", "settings": "steady state SPR, (95% CI)"}, "KRAS^G12V": {"target": "KRAS^G12V (Homo sapiens, UniProt P01116+P62937, G12V)", "experiment": "KRAS–RALGDS RID binding inhibition in vitro", "format": "biochemical", "design": "His6-TEV (N); made in house; host or cells: BL21(DE3) Escherichia coli; TR-FRET of recombinant KRAS and RALGDS RID: scale not given here", "settings": "for TR-FRET of recombinant KRAS and RALGDS RID: KRAS G12V, single replicates"}}, "note": "pEC50, pIC50, pKd: −log10 of the molar value. Several values for one entry are separate records, joined by “and”; a condition that tells them apart may be missing. Equal values may be shown once."}
{"smiles": "CCn1c(-c2cc(N3CCN(C4CC4)CC3)cnc2[C@H](C)OC)c2c3cc(ccc31)-c1csc(n1)C[C@H](NC(=O)[C@H]1[C@@H]3COC[C@@H]31)C(=O)N1CCC[C@H](N1)C(=O)OCC(C)(C)C2", "note": "[RMC-7977]", "values": [{"measurement": "pKd", "setting": "NRAS WT", "result": 7.00}, {"measurement": "inhibition of downstream signalling (pERK)", "setting": "A375 cells; A375, BRAF^V600E, RAS-independent", "result": "No inhibition"}, {"measurement": "pEC50", "setting": "A375 cells; Homo sapiens, A-375, A375 (BRAF^V600E)", "result": "< 5.00"}, {"measurement": "TR-FRET of recombinant KRAS and RALGDS RID", "setting": "WT KRAS; RMC-7977 0.005 nM with CYPA", "result": "1.077 and 1.051 and 1.011 and 0.9577"}, {"measurement": "TR-FRET of recombinant KRAS and RALGDS RID", "setting": "WT KRAS; RMC-7977 0.046 nM with CYPA", "result": "0.9855 and 0.9772 and 0.9315 and 0.827"}, {"measurement": "TR-FRET of recombinant KRAS and RALGDS RID", "setting": "WT KRAS; RMC-7977 0.412 nM with CYPA", "result": "0.9473 and 0.8792 and 0.8105 and 0.8965"}, {"measurement": "TR-FRET of recombinant KRAS and RALGDS RID", "setting": "WT KRAS; RMC-7977 1.235 nM with CYPA", "result": "0.966 and 0.9012 and 0.7562 and 0.8255"}, {"measurement": "TR-FRET of recombinant KRAS and RALGDS RID", "setting": "WT KRAS; RMC-7977 3.704 nM with CYPA", "result": "0.755 and 0.7635 and 0.8193 and 0.729"}, {"measurement": "TR-FRET of recombinant KRAS and RALGDS RID", "setting": "WT KRAS; RMC-7977 11.111 nM with CYPA", "result": "0.531 and 0.5523 and 0.5275 and 0.6425"}, {"measurement": "TR-FRET of recombinant KRAS and RALGDS RID", "setting": "WT KRAS; RMC-7977 33.333 nM with CYPA", "result": "0.3432 and 0.2545 and 0.2295 and 0.2898"}, {"measurement": "TR-FRET of recombinant KRAS and RALGDS RID", "setting": "WT KRAS; RMC-7977 100.000 nM with CYPA", "result": "0.19 and 0.03225 and 0.05775 and 0.042"}, {"measurement": "pIC50", "setting": "WT KRAS; recombinant, with CYPA", "result": 7.85}, {"measurement": "% Antigen specific CD8 T cells", "setting": "[1]; spleen, day 15, 25 mg/kg PO daily, OVA peptide vaccinated C57BL/6J mice", "result": "1.46% and 1.22% and 0.72%"}, {"measurement": "IFNγ production by ELISpot", "setting": "[1]; splenocytes stimulated with SIINFEKL", "result": "1885 and 890 and 922"}, {"measurement": "IFNγ production by ELISpot", "setting": "[1]; splenocytes, no stim", "result": "35 and 80 and 53"}, {"measurement": "RAS signalling and growth of adagrasib-resistant clone", "setting": "[2]", "result": "inhibited RAS signalling and growth"}, {"measurement": "pEC50", "setting": "KRAS WT [3]", "result": 8.04}, {"measurement": "pEC50", "setting": "KRAS^G12C [4]", "result": 8.90}, {"measurement": "pEC50", "setting": "KRAS^G12D", "result": 8.57}, {"measurement": "pEC50", "setting": "KRAS^G12R [5]", "result": 8.54}, {"measurement": "pEC50", "setting": "KRAS^G13C", "result": 8.43}, {"measurement": "pKd", "setting": "KRAS WT [6]", "result": 6.94}, {"measurement": "pKd", "setting": "KRAS^G12R [7]", "result": 6.57}, {"measurement": "pEC50", "setting": "KRAS^G12A", "result": 8.31}, {"measurement": "pEC50", "setting": "KRAS^Q61H", "result": 8.24}, {"measurement": "pKd", "setting": "KRAS^G12C [8]", "result": 7.40}, {"measurement": "TR-FRET of recombinant KRAS and RALGDS RID", "setting": "KRAS^G12V; RMC-7977 0.005 nM with CYPA", "result": "1.0295 and 1.03 and 1.0995 and 1.02"}, {"measurement": "TR-FRET of recombinant KRAS and RALGDS RID", "setting": "KRAS^G12V; RMC-7977 0.046 nM with CYPA", "result": "1.033 and 0.9862 and 0.9822 and 1.02"}, {"measurement": "TR-FRET of recombinant KRAS and RALGDS RID", "setting": "KRAS^G12V; RMC-7977 0.412 nM with CYPA", "result": "0.9113 and 1.003 and 0.948 and 0.8985"}, {"measurement": "TR-FRET of recombinant KRAS and RALGDS RID", "setting": "KRAS^G12V; RMC-7977 1.235 nM with CYPA", "result": "0.868 and 0.861 and 0.9113 and 0.9277"}, {"measurement": "TR-FRET of recombinant KRAS and RALGDS RID", "setting": "KRAS^G12V; RMC-7977 3.704 nM with CYPA", "result": "0.6665 and 0.6727 and 0.7087 and 0.775"}, {"measurement": "TR-FRET of recombinant KRAS and RALGDS RID", "setting": "KRAS^G12V; RMC-7977 11.111 nM with CYPA", "result": "0.4672 and 0.5503 and 0.4273 and 0.4677"}, {"measurement": "TR-FRET of recombinant KRAS and RALGDS RID", "setting": "KRAS^G12V; RMC-7977 33.333 nM with CYPA", "result": "0.2172 and 0.237 and 0.1963 and 0.1593"}, {"measurement": "TR-FRET of recombinant KRAS and RALGDS RID", "setting": "KRAS^G12V; RMC-7977 100.000 nM with CYPA", "result": "0.031 and -0.01375 and 0.0395 and 0.0045"}, {"measurement": "pIC50", "setting": "KRAS^G12V; KRAS^G12V, recombinant, with CYPA", "result": 8.10}]}
